# Source: patent US8802240B2, “Uses of formulations of thyroid hormone analogs and nanoparticulate forms thereof to increase chemosensitivity and radiosensitivity in tumor or cancer cells” (Nanopharmaceuticals LLC, priority 2011, dated 2014)
# “Also recorded” adds a separate entry of the source.
# What was measured:
# [1] = tested on: matrigel plug angiogenesis; assay: Mouse matrigel model of angiogenesis (plug hemoglobin); assay type: in vivo, mice (C57BL/6NCr)
# Experimental: Normal male mice (C57BL/6NCr) 6-8 weeks of age and weighing ˜20 g were purchased from Taconic farm. Animals were housed 4 per cage, in controlled conditions of temperature (20-24° C.); humidity (60-70%) and 12 hrs. light/dark cycle provided with food and water ad libitum. […] Aliquots of matrigel were placed into cold polypropylene tubes to prevent the matrigel from solidifying and the angiogenesis promoter added to matrigel with or without agonist. Mice were treated daily. Matrigel was subcutaneously injected as triple injection per animal at 100 μL/animal. At day 14 post plug implant all animals were killed in CO2 chamber and matrigel plugs were collected. Plug hemoglobin content was analyzed from three implants/mice (n=6 per group) to measure angiogenesis.
# The matrigel plugs dissected from the mice were carefully stripped of any remaining peritoneum. The plugs were placed into 0.5 mL tube of ddH2O and homogenized for 5-10 min. […] Absorbance was read with a Microplate Manager ELISA reader at 540 nm. […] Hemoglobin concentration is a reflection of the number of blood vessels in the plugs.
# [2] = Solubility; assay type: physicochemical; conditions: required a high volume of cosolvent (DMSO)
# [3] = tested on: MCF7 and MCF7/R cells; assay: Intracellular accumulation of radiolabeled doxorubicin; assay type: cell-based; conditions: 24 hours, presence vs absence of Tetrac
# Experimental: FIG. 15A is a Western blofshowing the expression of P-gp, GST and SOD in wild type (W) drug sensitive and resistant (R) MCF7 cells. […] The cells were treated for 24 h with each drug alone or the combination of both, after that, expression of drug resistance molecules was determined by Western blot using specific antibodies. […] The cells were incubated for 24 hours with doxorubicin in the absence or the presence of Tetrac, after that they were washed and then solubilized. Radioactivity associated with the cell lysates was counted and compared between the two cell lines either treated or not with Tetrac. The data represent an average of 3 determinations±SE.
# [4] = tested on: human medullary thyroid carcinoma cells; assay: Confocal distribution of Cy3-labeled Tetrac vs Tetrac NP; assay type: cell-based; conditions: around 2 h
# From the text: Penicillin streptomycin (1%) was present in both culture media.
# [5] = tested on: medullary thyroid carcinoma cells implanted in CAM; assay: CAM cancer implant model; assay type: in vivo, chick; conditions: 1 μg/CAM; n = 8; P<0.01
# Experimental: The effect of Tetrac versus nanoparticulate Tetrac at 1.0 μg/CAM on tumor angiogenesis and tumor growth of 1×10^6 medullary thyroid carcinoma cells implanted in Matrigel in 7 day-old CAM's was determined 8 days after implantation. […] Data represent mean tumor weight (mg) and tumor hemoglobin (mg/dL)±SEM per treatment group, n=8 per group.
# [6] = tested on: MDA-MB-231 cells; assay: RNA microarray of MDA-MB-231 cells; assay type: cell-based, human
# Experimental: MDA-MB-231 cells were maintained in DMEM that was supplemented with 10% FBS in a 5% CO2/95% 02 air incubator at 37° C. For two days prior to exposure to Tetrac and nanoparticulate Tetrac, cells were maintained in 0.25% FBS that was stripped of estrogen and thyroid hormone. (See Lin et al., Biochemistry 42: 7571-7579 (2003)).
# Microarray analysis experiments were conducted as described previously. (See Glinsky et al., J Clin Invest 115: 1503-1521 (2005); Glinsky et al., J Clin Invest 113: 913-923 (2004); Glinsky et al., Clin Cancer Res 10: 2272-2283 (2004); and Glinsky et al., Mol Carcinog 37: 209-221 (2003)). […] Sample purity and integrity were verified with an Agilent BioAnalyzer (Santa Clara, Calif.). Expression analysis of 54,675 transcripts for each sample was by Affymetrix HG-U133A Plus 2.0 arrays. MAS5.0 software was used for data retrieval and analysis and concordant changes of gene expression in response to unmodified Tetrac and nanoparticulate Tetrac were defined by two-tailed t test at a threshold p value<0.01.
# Expression of ˜54,000 transcripts was analyzed in control and drug-treated cultures, using Affymetrix Human Genome U133 plus 2.0 microarrays. Subsequent analysis was focused on genes affected by treatment at p<0.01. There was 93% concordance between Tetrac and Tetrac NP in terms of genes affected; notable disparities included downregulation of epidermal growth factor receptor (EGFR) by Tetrac NP and no affect of unmodified Tetrac on this gene.
# [7] = tested on: DNA double-strand breaks in U87MG cells; assay: U87MG neutral comet assay of DNA double-strand breaks; assay type: cell-based, human
# Experimental: For the comet assay studies of induction and repair of DSBs in U87MG cells, cells were treated as described above. However, for the single dose induction of DSBs doses ranged from 0-30 Gy, and for the study of the repair of DSBs in irradiated cells, a large single dose of 60 Gy requiring approximately 1 h of irradiation time was given. Appropriate temperature controls (on ice) were run to insure that no decrement in survival was produced by the 1 h exposure to 0° C.
# U87MG cells on plastic slides were exposed to 2 nM Tetrac for 1 h at 37° C. These slides were then placed on crushed ice and irradiated with doses from 0 to 75 Gy. Slides were immersed in lysing solution at 50° C. for 2 hours. Slides were washed, and placed into a gel electrophoresis unit. Electrophoresis was carried out at 0.66 V/cm for 25 min. Cells were stained with ethidium bromide and image analysis was done using an epifluoresence microscope at a total magnification of 400×. We also used an excitation filter of 515-535 nm and a barrier filter at 590 nm. The mean tail moment (TM) which is expressed in arbitrary units was then calculated. TM was calculated using a CCD camera and software. Approximately 350 comets were analyzed per condition.
smiles,measurement,setting,value
"O=C(O)Cc1cc(I)c(Oc2cc(I)c(O)c(I)c2)c(I)c1 [Tetrac, tetraiodothyroacetic acid]",inhibition in vivo at 10 µg/plug,"[1]; Mus musculus, FGF 100 ng + test substance 10 μg/plug, numbers are Tetrac analogs of Example 13",90 ± 13%
same,inhibition of FGF induced angiogenesis,[1]; Tetrac 10 μg,85%
same,solubility in water (in words),[2],difficult to solubilize in water
same,intracellular accumulation of radiolabeled doxorubicin (in words),[3],increased significantly
same,distribution within h-MTC cells (in words),[4],distributed in the cytoplasm
same,tumor growth (in words),[5],effective inhibition
same,tumor-mediated angiogenesis (in words),[5],significant inhibition
same,Change: BCL2L14,[6],not a significant stimulatory action and ↑
same,"Change: CASP2, Caspase 2",[6],not a significant stimulatory action and ↑
same,"Change: CBY1, Catenin inhibitor",[6],significantly increased and induced and ↑
same,"Change: CDKN2C, Cyclin-dependent kinase inhibitor",[6],↑
same,"Change: CTNNA1, Catenin",[6],↓
same,"Change: CTNNA2, Catenin",[6],↓
same,"Change: CTSL1, Cathepsin 1",[6],↓
same,"Change: CXCL10, Anti-endothelial cell chemokine",[6],↑
same,"Change: Cyclins, Cell cycle regulators",[6],↓
same,"Change: EDN1, Endothelin-1",[6],↑
same,"Change: Interleukins, Inflammatory cytokines",[6],↓
same,"Change: MCL1, Myeloid cell leukemia-1",[6],did not significantly affect and ↓
same,"Change: NR1D1, Nuclear receptor Rev-erbα",[6],↓
same,"Change: THBS1, Thrombospondin",[6],strongly induced and ↑
same,"Change: XIAP, X-linked inhibitor of apoptosis protein",[6],acted on XIAP and ↓
same,expression of epidermal growth factor receptor (EGFR) (in words),[6],ineffective; also recorded: no affect
same,effect on the slope of the mean tail moment in graded single dose studies (in words),[7],did not affect the slope of the mean tail moment
same,sensitization factor from mean tail moment at 0 Gy,[7],2.2
same,inhibition of repair of DNA double strand breaks / decrease of repair rate,[7]; [(1.00−slope Tetrac/slope control)×100],72.5%
same,slope of time-dependent DSB repair,"[7]; after 30 Gy of x-rays, control −4.36",−1.20
